From PubChem BioAssay AID328 (DTP/NCI, 2004)
Several values for one entry are separate records, joined by “and”; a condition that tells them apart may be missing. Equal values may be shown once. Toxic doses and inconclusive results are not listed.

System: BDF1 mice, P388 leukemia ip, median survival T/C
Assay: NCI In Vivo Anticancer Drug Screen. Data for tumor model P388 Leukemia (intraperitoneal) in B6D2F1 (BDF1) mice
Conditions: endpoint: median survival time, higher = longer survival
In short: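 Each value expresses how treatment altered survival: treated-mouse outcome over vehicle-mouse outcome, both groups bearing the transplanted tumour.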

[1] = dose: 50.0 mg/kg/injection, schedule: Q01DX009 (ip), vehicle: saline
[2] = dose: 100.0 mg/kg/injection, schedule: Q01DX009 (ip), vehicle: saline
[3] = dose: 100.0 mg/kg/injection, schedule: Q04DX003 (ip), vehicle: Klucel (hydroxypropylcellulose) (HPC)
[4] = dose: 200.0 mg/kg/injection, schedule: Q04DX003 (ip), vehicle: Klucel (hydroxypropylcellulose) (HPC)
[5] = dose: 400.0 mg/kg/injection, schedule: Q04DX003 (ip), vehicle: Klucel (hydroxypropylcellulose) (HPC)
[6] = dose: 25.0 mg/kg/injection, schedule: Q01DX009 (ip), vehicle: saline with Tween-80
[7] = dose: 50.0 mg/kg/injection, schedule: Q01DX009 (ip), vehicle: saline with Tween-80
[8] = dose: 100.0 mg/kg/injection, schedule: Q01DX009 (ip), vehicle: saline with Tween-80
[9] = dose: 6.25 mg/kg/injection, schedule: Q04DX003 (ip), vehicle: saline
[10] = dose: 12.5 mg/kg/injection, schedule: Q04DX003 (ip), vehicle: saline
[11] = dose: 25.0 mg/kg/injection, schedule: Q04DX003 (ip), vehicle: saline
[12] = dose: 6.25 mg/kg/injection, schedule: Q01DX009 (ip), vehicle: saline with Tween-80
[13] = dose: 12.5 mg/kg/injection, schedule: Q01DX009 (ip), vehicle: saline with Tween-80

## N=c1nc2n(cc1F)[C@@H]1O[C@H](CO)[C@@H](O)[C@@H]1O2
dose: 64.0 mg/kg/injection, schedule: Q01DX005 (ip), vehicle: saline
  T/C: 153 % of control
dose: 128.0 mg/kg/injection, schedule: Q01DX005 (ip), vehicle: saline
  T/C: 171 % of control
dose: 256.0 mg/kg/injection, schedule: Q01DX005 (ip), vehicle: saline
  T/C: 209 % of control
dose: 512.0 mg/kg/injection, schedule: Q01DX005 (ip), vehicle: saline
  T/C: 276 % of control
dose: 768.0 mg/kg/injection, schedule: Q01DX005 (ip), vehicle: saline
  T/C: 86 % of control

## CCC1OCCN1C(C)C (centres undefined)
[1]
  T/C: 108 % of control
[2]
  T/C: 108 % of control

## Nc1ncccc1C(=O)O
dose: 62.5 mg/kg/injection, schedule: Q01DX010 (ip), vehicle: saline
  T/C: 90 % of control
dose: 125.0 mg/kg/injection, schedule: Q01DX010 (ip), vehicle: saline
  T/C: 100 % of control
dose: 250.0 mg/kg/injection, schedule: Q01DX010 (ip), vehicle: carboxymethylcellulose (CMC)
  T/C: 113 % of control
dose: 500.0 mg/kg/injection, schedule: Q01DX010 (ip), vehicle: carboxymethylcellulose (CMC)
  T/C: 100 % of control

## CCCC(=O)c1c(C)cc(C)cc1C
[3]
  T/C: 110 % of control
[4]
  T/C: 110 % of control
[5]
  T/C: 120 % of control

## O=[N+]([O-])c1cc([N+](=O)[O-])c2ccccc2c1NS(=O)(=O)c1ccc(Br)cc1
[6]
  T/C: 112 % of control
[7]
  T/C: 113 % of control

## O=C1C=C(O/C=C/C(C(F)(F)F)C(F)(F)F)C(=O)c2ccccc21
[8]
  T/C: 109 % of control

## CNc1n[n+](-c2ccccc2)no1
dose: 3.12 mg/kg/injection, schedule: Q01DX009 (ip), vehicle: saline
  T/C: 115 % of control
dose: 6.25 mg/kg/injection, schedule: Q01DX009 (ip), vehicle: saline
  T/C: 101 % of control and 120 % of control
[9]
  T/C: 102 % of control
[10]
  T/C: 96 % of control
[11]
  T/C: 104 % of control and 107 % of control

## COc1cc(C)c(Cl)c(C)c1C#CC(=O)O
dose: 100.0 mg/kg/injection, schedule: Q01DX001 (ip), vehicle: Klucel (hydroxypropylcellulose) (HPC)
  T/C: 115 % of control
dose: 200.0 mg/kg/injection, schedule: Q01DX001 (ip), vehicle: Klucel (hydroxypropylcellulose) (HPC)
  T/C: 111 % of control

## O=[N+]([O-])c1c(Cl)cccc1-c1c[nH]cc1Cl
dose: 100.0 mg/kg/injection, schedule: Q01DX009 (ip), vehicle: Klucel (hydroxypropylcellulose) (HPC)
  T/C: 95 % of control
dose: 200.0 mg/kg/injection, schedule: Q01DX009 (ip), vehicle: Klucel (hydroxypropylcellulose) (HPC)
  T/C: 95 % of control
dose: 400.0 mg/kg/injection, schedule: Q01DX009 (ip), vehicle: Klucel (hydroxypropylcellulose) (HPC)
  T/C: 86 % of control

## c1cc(Nc2ccncc2)ccn1
[12]
  T/C: 96 % of control
[9]
  T/C: 115 % of control
[13]
  T/C: 104 % of control
[10]
  T/C: 92 % of control
[6]
  T/C: 108 % of control
[11]
  T/C: 107 % of control

## COc1cccc(C(=O)C=C(C(F)(F)F)C(F)(F)F)c1
dose: 11.0 mg/kg/injection, schedule: Q01DX009 (ip), vehicle: saline with Tween-80
  T/C: 109 % of control
dose: 16.5 mg/kg/injection, schedule: Q01DX009 (ip), vehicle: saline with Tween-80
  T/C: 109 % of control
[6]
  T/C: 113 % of control

## C[Si]1(C)CCCSC1
[13]
  T/C: 89 % of control
[6]
  T/C: 91 % of control
[7]
  T/C: 93 % of control
[8]
  T/C: 103 % of control

## NC(=S)N/N=C\c1nccc2ccc(N)cc12
[7]
  T/C: 157 % of control

## CCN1c2ccccc2C(Cl)(c2ccc(N(C)C)cc2)c2ccccc21
dose: 3.75 mg/kg/injection, schedule: Q01DX009 (ip), vehicle: saline
  T/C: 118 % of control
[9]
  T/C: 100 % of control
dose: 7.5 mg/kg/injection, schedule: Q01DX009 (ip), vehicle: saline
  T/C: 118 % of control
[10]
  T/C: 116 % of control
[11]
  T/C: 116 % of control

## CCC(c1ccc2cc(OC)ccc2c1)C(C(=O)O)C(=O)O (centres undefined)
dose: 50.0 mg/kg/injection, schedule: Q04DX003 (ip), vehicle: Klucel (hydroxypropylcellulose) (HPC)
  T/C: 87 % of control

## COP(=O)(OC)OC=C(Cl)Cl
[12]
  T/C: 100 % of control
[13]
  T/C: 103 % of control
[6]
  T/C: 102 % of control

## Cc1ccccc1N=C(N)Nc1ccccc1C
dose: 6.25 mg/kg/injection, schedule: Q04DX003 (ip), vehicle: saline with Tween-80
  T/C: 105 % of control
dose: 12.5 mg/kg/injection, schedule: Q04DX003 (ip), vehicle: saline with Tween-80
  T/C: 94 % of control
dose: 25.0 mg/kg/injection, schedule: Q04DX003 (ip), vehicle: saline with Tween-80
  T/C: 100 % of control

## CNc1ncnc2nc(OC)[nH]c12
dose: 0.78 mg/kg/injection, schedule: Q01DX009 (ip), vehicle: saline with Tween-80
  T/C: 95 % of control
dose: 1.56 mg/kg/injection, schedule: Q01DX009 (ip), vehicle: saline with Tween-80
  T/C: 100 % of control
dose: 3.13 mg/kg/injection, schedule: Q01DX009 (ip), vehicle: saline with Tween-80
  T/C: 98 % of control
[12]
  T/C: 101 % of control

## CN(C)c1ccc(Cc2ccc(N(C)C)cc2[N+](=O)[O-])c([N+](=O)[O-])c1
[3]
  T/C: 104 % of control
[4]
  T/C: 100 % of control
[5]
  T/C: 95 % of control

## CCCCCCCCCC(=O)NO
dose: 100.0 mg/kg/injection, schedule: Q01DX001 (ip), vehicle: saline sonified
  T/C: 100 % of control
dose: 200.0 mg/kg/injection, schedule: Q01DX001 (ip), vehicle: saline sonified
  T/C: 100 % of control
dose: 400.0 mg/kg/injection, schedule: Q01DX001 (ip), vehicle: saline sonified
  T/C: 100 % of control

## NC(Cc1nn[nH]n1)C(=O)O (centres undefined)
dose: 100.0 mg/kg/injection, schedule: Q01DX009 (ip), vehicle: water
  T/C: 100 % of control
dose: 100.0 mg/kg/injection, schedule: Q04DX003 (ip), vehicle: water
  T/C: 97 % of control
dose: 200.0 mg/kg/injection, schedule: Q01DX009 (ip), vehicle: water
  T/C: 94 % of control
dose: 200.0 mg/kg/injection, schedule: Q04DX003 (ip), vehicle: water
  T/C: 96 % of control
dose: 400.0 mg/kg/injection, schedule: Q01DX009 (ip), vehicle: water
  T/C: 94 % of control
dose: 400.0 mg/kg/injection, schedule: Q04DX003 (ip), vehicle: water
  T/C: 90 % of control

## COc1cc([N+](=O)[O-])ccc1N
dose: 100.0 mg/kg/injection, schedule: Q04DX003 (ip), vehicle: saline with Tween-80
  T/C: 100 % of control

## CCOC(=O)Nc1cc2c(c(N)n1)N=C(CN(C)c1ccc(OC)cc1)CN2
dose: 12.5 mg/kg/injection, schedule: Q01DX001 (ip), vehicle: Klucel (hydroxypropylcellulose) (HPC)
  T/C: 175 % of control
dose: 25.0 mg/kg/injection, schedule: Q01DX001 (ip), vehicle: Klucel (hydroxypropylcellulose) (HPC)
  T/C: 240 % of control
dose: 50.0 mg/kg/injection, schedule: Q01DX001 (ip), vehicle: Klucel (hydroxypropylcellulose) (HPC)
  T/C: 277 % of control

## O=C1CCS2(CCC(=O)O2)O1
[1]
  T/C: 98 % of control
[2]
  T/C: 94 % of control
dose: 200.0 mg/kg/injection, schedule: Q01DX009 (ip), vehicle: saline
  T/C: 98 % of control

## COc1ccc2c(c1)CCN1C2CCN2C(=O)CCC21 (centres undefined)
dose: 100.0 mg/kg/injection, schedule: Q01DX009 (ip), vehicle: saline sonified
  T/C: 104 % of control
dose: 200.0 mg/kg/injection, schedule: Q01DX009 (ip), vehicle: saline sonified
  T/C: 113 % of control
dose: 400.0 mg/kg/injection, schedule: Q01DX009 (ip), vehicle: saline sonified
  T/C: 100 % of control

## COC(=O)c1ccccc1NC(=O)C(Cl)Cl
dose: 75.0 mg/kg/injection, schedule: Q04DX003 (ip), vehicle: olive oil, sesame oil, peanut oil
  T/C: 95 % of control
dose: 100.0 mg/kg/injection, schedule: Q01DX001 (ip), vehicle: olive oil, sesame oil, peanut oil
  T/C: 95 % of control
dose: 150.0 mg/kg/injection, schedule: Q04DX003 (ip), vehicle: olive oil, sesame oil, peanut oil
  T/C: 95 % of control
dose: 200.0 mg/kg/injection, schedule: Q01DX001 (ip), vehicle: olive oil, sesame oil, peanut oil
  T/C: 90 % of control
dose: 300.0 mg/kg/injection, schedule: Q04DX003 (ip), vehicle: olive oil, sesame oil, peanut oil
  T/C: 100 % of control
dose: 400.0 mg/kg/injection, schedule: Q01DX001 (ip), vehicle: olive oil, sesame oil, peanut oil
  T/C: 100 % of control

## CC1=NNB(O)c2ccsc21
[13]
  T/C: 107 % of control
[6]
  T/C: 90 % of control
[7]
  T/C: 96 % of control

## CCCCCCCCCCCCCCCC(=O)NCCO
dose: 100.0 mg/kg/injection, schedule: Q04DX003 (ip), vehicle: saline sonified
  T/C: 91 % of control
